The values below come from paper PMC7615677 (Science translational medicine, 2023).

The structures appear in SMILES notation. Several values for one entry are separate records, joined by “and”; a condition that tells them apart may be missing. Equal values may be shown once.

In experiment [1] the test system is Leishmania. Description: Activity of synthesized metabolites against Leishmania. The format is cell-based.
Experiment [2] concerns T. cruzi. Set-up: method as in PMID 25740547. As to conditions: cited from earlier work.
The test system of experiment [3] is L. donovani intracellular amastigote stage. Set-up: method as in PMID 25740547. As to conditions: intracellular amastigote stage of L. donovani; cited from earlier work.
Experiment [4] deals with L. infantum. The experiment can be described thus: Promastigote back-transformation assay on organs of treated hamsters. Format: in vivo, golden hamsters. The source says: Female golden hamsters (5 per treatment group) were infected through intracardiac administration of 2x10^7 L. infantum amastigotes obtained from the spleen of a heavily infected donor hamster. […] After 5-day treatment period, followed by a 10-day wash out period, animals were sacrificed, and parasites burden assessed in the three target organs (liver, spleen, and bone-marrow). For this assessment, organs of individual animals were weighed, except for bone-marrow thus only providing a semi-quantitative evaluation only. Impression smears were Giemsa-stained for microscopic evaluation of amastigote burden, expressed as LDU (= mean number of amastigotes/cell × organ weight in mg) and the results were expressed as a percentage reduction compared to the burdens in the control group (vehicle as placebo). For evaluating the presence of viable residual burden after treatment, a promastigote back-transformation assay was conducted. This consisted of the incubation at ambient temperature of aseptically collected pieces of spleen or liver tissue in 1 mL of promastigote back-transformation medium in 24-well plates. For the bone-marrow, resected femurs were flushed with 1 mL medium. The medium consists of HOMEM pH 6.0 prepared as described elsewhere ([5]) with 10% fetal bovine serum (Gibco), 2.5% penicillin/streptomycin and 1% gentamicin (Merck). A qualitative assessment of the presence of promastigotes was made after 3 and 5 days of incubation and a score was attributed (+, ++ or +++) based on parasite density in the positive wells.
Supplementary Materials and methods
Promastigote transformation assay
For evaluating the presence of viable residual burdens after treatment, a promastigote back-transformation assay is conducted. This test consists of the incubation at ambient temperature of aseptically collected pieces of spleen or liver tissue in 1 mL of promastigote back-transformation medium in 24-well plates. For the bone-marrow, resected femurs are flushed with 1 mL medium. The medium consists of HOMEM pH 6.0 prepared as described elsewhere (1) with 10% fetal bovine serum (Gibco) and 2.5% penicillin/streptomycin and 1% gentamicin (Merck). A qualitative assessment of the presence of promastigotes is made after 3 and 5 days of incubation and a score is attributed (+, ++ or +++) based on parasite density in the positive […]
Supplementary Information on Tables
L. infantum MHOM/FR/96/LEM3323 Cl4 was originally obtained from a French HIV-positive patient (Languedoc area in Southern France) and provided by Dr. Laurence Lachaud of the Centre National de Référence des Leishmanioses (CNRL), Montpellier, France. The miltefosine and paromomycin resistant lines (LEM3323 Cl4 MIL-R and PMM-R) were obtained by successive in vitro selection cycles on intracellular amastigotes (2, 3)

The mark [5] stands for this setting: 40 mg/kg qd, 5 days, individual animals 1-10.

As to `Cc1nc(N)nc2[nH]c(CO)c(-c3ccc(C#N)c4c3OCO4)c12` [DNDI0003671146], in experiment [1], the “activity against Leishmania, in words” value is “inactive”.
As for `COc1ccccc1-c1c(C)[nH]c2nc(N)nc(C)c12` [TCMDC-143610], the 50% effective concentration (EC50) in experiment [2] was 0.13 µM; in experiment [3] it was 15.8 µM.
For `Cc1[nH]c2nc(N)nc(C)c2c1-c1ccc(C#N)c(O)c1O` [DNDI0003578765], in experiment [1], the “activity against Leishmania, in words” value is “inactive”.
In the case of `CCCCCCCCCCCCCCCCOP(=O)([O-])OCC[N+](C)(C)C` [miltefosine, reference compound], the “emergence of viable promastigotes from recovered organs, in words” value in experiment [4] (40 mg/kg) is recorded as “more than half of those following miltefosine administration at 40 mg/kg were positive”. Besides, in experiment [4] (setting [5]), the “parasite score, Bone-marrow” value was “++ (4×) and + (4×) and - (2×)”; the “parasite score, Liver” value was “+ (3×) and - (7×)”; the “parasite score, Spleen” value is “+ (5×) and ++ (4×) and -”.
